Measurements as given in ChEMBL document CHEMBL5338769, “Discovery of Norisoboldine Analogue III11 as a Novel and Potent Aryl Hydrocarbon Receptor Agonist for the Treatment of Ulcerative Colitis” (J Med Chem, 2023).
Activity calls are given as the source filed them. The rule behind the calls is not given here.

Legend:
[1] = target: T1, Aryl hydrocarbon receptor (Mus musculus, UniProt P30561); experiment: Activation of AhR transcription in C57BL/6 mouse naive T cells assessed as increase in CYP1A1 mRNA expression at 1 uM by qRT-PCR analysis; assay type: cell-based; conditions: t cell
T1 sequence (P30561 whole entry): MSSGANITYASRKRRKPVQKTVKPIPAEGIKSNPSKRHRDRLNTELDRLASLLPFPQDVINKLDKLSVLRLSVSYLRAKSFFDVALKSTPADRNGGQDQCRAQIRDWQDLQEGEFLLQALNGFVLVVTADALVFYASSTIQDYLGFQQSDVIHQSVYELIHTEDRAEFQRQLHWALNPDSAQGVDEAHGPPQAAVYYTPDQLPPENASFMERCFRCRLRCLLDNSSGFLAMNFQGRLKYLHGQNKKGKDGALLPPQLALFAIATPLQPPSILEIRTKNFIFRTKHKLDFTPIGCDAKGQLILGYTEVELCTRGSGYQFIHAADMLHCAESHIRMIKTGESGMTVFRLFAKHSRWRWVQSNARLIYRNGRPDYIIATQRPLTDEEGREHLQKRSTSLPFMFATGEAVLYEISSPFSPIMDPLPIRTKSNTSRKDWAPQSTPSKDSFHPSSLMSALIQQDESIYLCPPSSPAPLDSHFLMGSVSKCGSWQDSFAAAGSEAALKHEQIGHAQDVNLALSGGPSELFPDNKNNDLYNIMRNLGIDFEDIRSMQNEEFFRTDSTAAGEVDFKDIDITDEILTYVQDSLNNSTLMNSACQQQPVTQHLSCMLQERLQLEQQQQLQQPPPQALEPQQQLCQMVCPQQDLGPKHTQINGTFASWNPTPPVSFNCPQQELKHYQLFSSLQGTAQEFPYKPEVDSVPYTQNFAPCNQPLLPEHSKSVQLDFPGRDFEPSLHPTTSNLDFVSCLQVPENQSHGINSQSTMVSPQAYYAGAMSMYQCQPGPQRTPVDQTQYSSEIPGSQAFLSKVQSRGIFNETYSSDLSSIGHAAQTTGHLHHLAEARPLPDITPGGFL

EL4 = experiment: Cytotoxicity against mouse EL4 cells assessed as inhibition of cell proliferation incubated for 72 hrs by MTT assay; assay type: functional, cell-based; conditions: for IC50: EL4, 72 h
[2] = target: T1, Aryl hydrocarbon receptor; experiment: Activation of AhR transcription in C57BL/6 mouse naive T cells assessed as increase in CYP1A1 mRNA expression at 1 to 3 uM measured after 72 hrs by qRT-PCR analysis; assay type: cell-based; conditions: t cell, dose 1-3 µM
[3] = target: T1, Aryl hydrocarbon receptor; experiment: Activation of AhR transcription in C57BL/6 mouse naive T cells assessed as increase in UGT1A1 mRNA expression at 1 to 3 uM by qRT-PCR analysis; assay type: cell-based; conditions: t cell, dose 1-3 µM
[4] = target: T1, Aryl hydrocarbon receptor; experiment: Activation of AhR transcription in C57BL/6 mouse naive T cells assessed as increase in AhRR mRNA expression at 1 to 3 uM by qRT-PCR analysis; assay type: cell-based; conditions: t cell, dose 1-3 µM
[5] = target: T1, Aryl hydrocarbon receptor; experiment: Activation of AhR transcription in C57BL/6 mouse naive T cells assessed as increase in CYP1A1 mRNA expression at 1 to 3 uM by qRT-PCR analysis; assay type: cell-based; conditions: t cell, dose 1-3 µM
[6] = target: T1, Aryl hydrocarbon receptor; experiment: Activation of AhR transcription in C57BL/6 mouse naive T cells assessed as increase in CYP1B1 mRNA expression at 1 to 3 uM by qRT-PCR analysis; assay type: cell-based; conditions: t cell, dose 1-3 µM
[7] = target: T1, Aryl hydrocarbon receptor; experiment: Activation of AhR transcription in C57BL/6 mouse naive T cells assessed as increase in CYP1A1 mRNA expression at 3 uM measured after 72 hrs by qRT-PCR analysis relative to control; assay type: cell-based; conditions: t cell

Question: How did the Activity [1] turn out when COc1cc2c3c(c1OC)-c1ccccc1CC3NCC2 (stereo not drawn) [NORNUCIFERINE] was run?
Answer: The Activity was “Active”.

Question: What about the IC50 (EL4) of the same compound?
Answer: The IC50 was 26.2 µM.

Question: Which Activity [1] does the source give for COc1cc2c(cc1O)CC1NCCc3cc(OC)c(OC)c-2c31 (stereo not drawn) here?
Answer: The Activity was “Active”.

Question: And the IC50 (EL4)?
Answer: Its IC50 is 48.4 µM.

Question: With Oc1ccc2c(c1)CC1NCCc3cccc-2c31 (stereo not drawn) as the compound, how does the Activity (EL4) read?
Answer: Its Activity is “inactive”.

Question: For COc1cccc(CCNC(=O)OCc2ccccc2)c1, which Activity [2] is on record?
Answer: Its Activity is “Not Active”.

Question: COc1cc2c(cc1O)CC1c3c(cc(OC)c(O)c3-2)CCN1C(=O)OC(C)(C)C (stereo not drawn) was tested. Which Activity [1] did it give?
Answer: The Activity was “Active”.

Question: And the IC50 (EL4)?
Answer: The IC50 was 37 µM.

Question: COc1cc2c(cc1OC)-c1c(OC)c(OC)cc3c1C(C2)NCC3 (stereo not drawn) was tested. Which Activity [3] did it give?
Answer: The Activity was “Not Active”.

Question: And the Activity [4]?
Answer: The Activity was “Not Active”.

Question: What about the IC50 (EL4) of the same compound?
Answer: Its IC50 is 13.9 µM.

Question: And the Activity [5]?
Answer: The Activity was “Not Active”.

Question: And the Activity [6]?
Answer: Its Activity is “Not Active”.

Question: How did the Activity [3] turn out when COc1cc2c3c(c1OC)-c1ccccc1CC3N(C)CC2 (stereo not drawn) [(+/-)-NUCIFERINE] was run?
Answer: The Activity was “Not Active”.

Question: What about the Activity [4] of the same compound?
Answer: The Activity was “Not Active”.

Question: And the IC50 (EL4)?
Answer: Its IC50 is 35.9 µM.

Question: What about the Activity [5] of the same compound?
Answer: The Activity was “Not Active”.

Question: And the Activity [6]?
Answer: The Activity was “Not Active”.

Question: With CO/C=C/c1cc(OCc2ccccc2)ccc1Br as the compound, how does the Activity [2] read?
Answer: Its Activity is “Not Active”.

Question: For COc1ccc2c(c1)CC1NCCc3cc(OC)c(OC)c-2c31 (stereo not drawn), which IC50 (EL4) is on record?
Answer: Its IC50 is 10.8 µM.

Question: What about the Activity [7] of the same compound?
Answer: Its Activity is 152.7%.

Question: COc1ccc2c(c1)-c1c(OC)c(OC)cc3c1C(C2)NCC3 (stereo not drawn) was tested. Which IC50 (EL4) did it give?
Answer: Its IC50 is 20.7 µM.

Question: And the Activity [7]?
Answer: Its Activity is 177%.
